From article PMC10541198, “Specific quinone reductase 2 inhibitors reduce metabolic burden and reverse Alzheimer’s disease phenotype in mice” (The Journal of Clinical Investigation, 2023) come the findings set out here.

“And” between values parts separate entries of the source, which are not always exact repeats. Equal values may be shown once.

This assay relates to eIF2α. Briefly: Immunoblot of total and phosphorylated eIF2α 3 hours after CA1 microinjection. The format is in vivo, mouse. As to the method: In order to evaluate the efficacy of some of the leading QR2is in vivo, we carried out double-blind experiments using 2 different modalities (Supplemental Methods), measuring memory that is dependent on different brain areas. First, cortical memory was tested using incidental novel taste learning (see Methods), in which an unfamiliar, but palatable and safe, taste is given for the first time, and the memory for this newly learned taste is then assessed 2 days later. This is done by measuring the volume of the taste consumed upon subsequent exposure to it ([32]) (Figure 4A). […] Next, hippocampal-dependent learning was evaluated using delay fear conditioning (DFC; see Methods) ([33]). Mice were cannulated to the CA1 region of the hippocampus and were microinjected with YB-537 (1 μL of 5 μM, Figure 4, D and H) or vehicle. […] In order to evaluate any possible effect of acute QR2i microinjection on metabolic stress in the mouse brain, ISR activation was measured by quantifying total and phosphorylated eukaryotic initiation factor 2 α (eIF2α) levels (Supplemental Figure 3A) and lipid peroxidation product, 4-hydroxynonenal (4-HNE; Supplemental Figure 3B), by immunoblot 3 hours after the injection. […]
A general note: A western blot detects proteins with antibodies after separation by electrophoresis.

For `Cc1ccc(-c2cn3cccc(C)c3n2)cc1S(=O)(=O)N1CCNCC1` [YB-537], the eIF2α phosphorylation levels entry (3 hours after microinjection in the mouse hippocampus) is “insignificant reduction”. Further, the “eIF2α phosphorylation, immunoblot (individual mice)” value (3 hours after microinjection, Sup. Fig. 3A) is 1.423 and 1.158 and 1.034 and 0.527 and 1.086 and 1.215 and 0.836.
